Laboratory results: patent US11439646B2, “Anti-proliferative agents for treating PAH” (Pfizer Inc., priority 2016, dated 2022)

How the values were obtained:
[1] = system: hPAAF; experiment: EdU cell proliferation assay, hPAAF; type: cell-based; conditions: Homo sapiens, 5% FBS, N = 6, FIG. 1f, read-out: hPAAF IC50 (nM), inhibition of proliferation
Experimental: Alternatively, rather than using BrdU, EdU (5-ethynyl-2′-deoxyuridine) can be used. Cells were first pre-incubated with different concentrations of the CDK inhibitor for 30 minutes, and then 5% FBS was added to stimulate cell proliferation. Cells were maintained for 24 h before the proliferation rate was evaluated using EDU Click-iT EdU Alexa Fluor® 647 HCS Assay (Thermofisher Scientific, USA). EdU was added to the medium 16 h before the quantification of EdU incorporation. Proliferation was quantified by scanning the 96-well plates using automated high content imaging platform equipped with appropriate fluorescence microscopic filters for DAPI (4′,6-Diamidino-2-Phenylindole) or Hoechst stain and Cyanine5 dyes as part of the Click-iT assay. Proliferating EdU positive cells detected at Cyanine5 were quantified and normalized to total cell number per well where the total cell number per cell was identified by DAPI or Hoechst signal. The % effect was then calculated:
The average (avg) amount (amt) of proliferating cells per concentration of CDK inhibitor with FBS present.
The minimum amount of proliferation (min amt of prolif'n) is based on cell numbers in the wells where FBS is not added and no CDK inhibitor is present.
The maximum amount of proliferation (max amt of prolif'n) is based on cell numbers in the wells where FBS is added and no CDK inhibitor is present.

[2] = system: Rat MCT-induced PAH Model; experiment: Rat MCT-induced PAH model (hemodynamics, histomorphometry, IHC); type: in vivo
Experimental: Rat MCT-induced PAH Model: Male Sprague-Dawley rats (Charles River Laboratories) (260-280 g; vehicle control group, n=6; all other groups, n=15) received MCT (50 mg/kg, SC; 1 ml/kg BVV) dissolved in vehicle (33.3% 1 N HCl, 14.8% 1 N NaOH, 52.2% diH2O) or vehicle alone on day 0. Sildenafil (50 mg/kg/dose; BID) was administered (5 ml/kg, PO) either prophylactically from days 0-28 or therapeutically from days 14-28. Palbociclib (100 mg/kg; QD) was administered therapeutically (days 14-28). Both sildenafil and palbociclib were resuspended in vehicle (0.5% methylcellulose) and administered orally (5 ml/kg). On day 28, animals were anesthetized via isoflurane, hemodynamic parameters were evaluated, and tissues harvested after euthanasia.
Hemodynamic measurements—monocrotaline (MCT) study: On day 28, animals were anesthetized via 2% isofluorane in positive pressure ventilator. Pulmonary hemodynamics were measured using a pre-calibrated pressure transducer in isoflurane positive-pressure ventilated animals. Steady-state pulmonary and systemic arterial pressures were measured using a Millar Solid State Mikro-tip catheter (Millar Instruments, Houston, Tex.) introduced to the pulmonary arterial trunk at the level of the aortic arch via the right carodid artery. Hemodynamic values were automatically calculated by the physiological data acquisition system, ADI Chart (ADI Instruments, Colorado Springs, Colo.) (Plato BioPharma).
Measurement of RV hypertrophy. After collection of the heart at necropsy, the atria and great vessels were removed. The RV was separated from the LV and S. The wet weights of the RV and LV+S were measured to calculate the Fulton Index.
Tissue preparation. Under anesthesia, the animals were exsanguinated, and the pulmonary circulation flushed with oxygenated (animals from Example 3 [MCT]) or heparizined (animals from Example 4 [Su5416/Hx]) saline. Trachea, lungs, and heart were removed intact from thoracic cavity and placed in ice-cold saline. Right lung lobes were removed, weighed, and immediately flash frozen in liquid nitrogen. A 10 mL syringe filled with fixative (10% NBF) with attached blunt tip needle (20 g) was used to inflate the left lung lobe and the airway was tied off to keep it consistently expanded. The left lung was then immersion fixed in 10% NBF for 48 hrs and then transferred to 70% EtOH for ≤5 days.
Histomorphometric analysis. Three, 3-5 μm thick, transverse sections of the left lung lobe were used for histomorphometric analysis. Overall disease severity scores were determined by light microscopic evaluation of hematoxylin and eosin (H&E)-stained lung sections by a board-certified veterinary pathologist. Scores ranged from 0 (absent), 1 (minimal), 2 (mild), 3 (moderate), 4 (marked) to 5 (severe) and were assigned according to the approximate percentage of the tissue affected by the tissue changes (inflammatory, degenerative, vascular and/or proliferative) characteristic of the PAH model. Average vessel wall thickness was evaluated using lung sections prepared with a modified Verhoeff-van Gieson elastin stain. Image analysis was performed using random field sampling (Visiopharm newCAST) of 10% of tissue area with observer-assisted identification of intra-acinar and pre-acinar vessels and application of a nucleator probe to measure vessel wall thickness. Fully muscularized intra-acinar vessel density was evaluated in a similar manner using dual αSMA/Ki67 IHC-stained sections and observer-assisted counting of ≥70% muscularized (i.e. SMA^+), transversely sectioned, ≤50 μm external diameter, intra-acinar vessels with an identifiable lumen. Vessel-associated Ki67^+ and pRb^+ cells were counted in αSMA/Ki67 IHC-and CD31/pRb IHC-stained lung sections, respectively, using random field sampling of 10% of tissue area and observer-assisted identification of Ki67^+ or pRb^+ cells associated with the walls (i.e. in the intima or media) of vessels 100 μm external diameter.
Immunohistochemistry. […]

[3] = day 14-28, score scale 0-5, FIG. 3g

CC(=O)c1c(C)c2cnc(Nc3ccc(N4CCNCC4)cn3)nc2n(C2CCCC2)c1=O [Palbociclib, 6-acetyl-8-cyclopentyl-5-methyl-2-{[5-(piperazin-1-yl)pyridin-2yl]amino}pyrido[2,3-d]pyrimidin-7(8H)-one]
IC50 [1]: 0.4 nM | structural changes in the pulmonary vasculature (histomorphometry) ([2]; FIG. 3f): dramatically improved and in some cases fully normalized | vessel-associated Ki67+ proliferating cells (IHC, lung) ([2]; FIG. 5c): dramatically decreased to control levels | vessel-associated phosphoRb+ cells (IHC, lung) ([2]; FIG. 5d): dramatically decreased to control levels | density of fully muscularized intra-acinar vessels (αSMA staining) ([2]; day 14-28, FIG. 3e): greater reduction | average vessel wall thickness (elastin staining), intra-acinar and pre-acinar pulmonary arteries, relative to vehicle/MCT group ([2]; day 14-28, FIG. 3d): 0.58 x MCT | disease severity scores, mean [2, 3]: 1 | disease severity scores, range [2, 3]: 0-2 | hemodynamic and physiologic effects ([2]; palbociclib 100 mg/kg/day PO QD, therapeutic day 14-28, versus sildenafil day 0-28): not only matched but exceeded the positive hemodynamic and physiologic effects of sildenafil when dosed prophylactically
